Activity calls are given as the source filed them. The calls are words filed in the database; no cut-off is given here.
Key:
Rattus norvegicus [1] = experiment: Anticonvulsant activity in Wistar rat assessed as protection against maximal electroshock-induced seizures at 30 mg/kg, po after 1 hr; type: functional
Rattus norvegicus [2] = experiment: Anticonvulsant activity in Wistar rat maximal electroshock-induced seizures model assessed as time spend in hind leg tonic extensor phase at 30 mg/kg, po after 0.25 hrs relative to control; type: functional
Mus musculus [3] = experiment: Anticonvulsant activity in ip dosed Swiss albino mouse assessed as protection against maximal electroshock-induced seizures after 4 hrs; type: functional; conditions: read-out: MED
Rattus norvegicus [4] = experiment: Anticonvulsant activity in Wistar rat assessed as protection against maximal electroshock-induced seizures at 30 mg/kg, po after 0.25 hrs; type: functional
Mus musculus [5] = experiment: Neurotoxicity in Swiss albino mouse assessed as motor impairment at 300 mg/kg, ip after 0.5 hrs by rotorod test; type: toxicity, organism-based; design: dose 300 mg/kg, route intraperitoneal; conditions: in vivo
Mus musculus [6] = experiment: Anticonvulsant activity in ip dosed Swiss albino mouse assessed as protection against subcutaneous pentylenetetrazole-induced seizures after 4 hrs; type: functional; conditions: read-out: MED
Rattus norvegicus [7] = experiment: Anticonvulsant activity in Wistar rat maximal electroshock-induced seizures model assessed as time spend in hind leg tonic extensor phase at 30 mg/kg, po after 2 hrs relative to control; type: functional
Rattus norvegicus [8] = experiment: Anticonvulsant activity in Wistar rat assessed as protection against maximal electroshock-induced seizures at 30 mg/kg, po after 0.5 hrs; type: functional
Rattus norvegicus [9] = experiment: Anticonvulsant activity in Wistar rat assessed as protection against maximal electroshock-induced seizures at 30 mg/kg, po after 4 hrs; type: functional
Rattus norvegicus [10] = experiment: Neurotoxicity in Wistar rat assessed as motor impairment at 30 mg/kg, po by rotorod test; type: toxicity, organism-based; design: dose 30 mg/kg, route oral; conditions: in vivo
Rattus norvegicus [11] = experiment: Anticonvulsant activity in Wistar rat maximal electroshock-induced seizures model assessed as time spend in hind leg tonic extensor phase at 30 mg/kg, po after 0.5 hrs relative to control; type: functional
Rattus norvegicus [12] = experiment: Anticonvulsant activity in Wistar rat maximal electroshock-induced seizures model assessed as time spend in hind leg tonic extensor phase at 30 mg/kg, po after 4 hrs relative to control; type: functional
Rattus norvegicus [13] = experiment: Anticonvulsant activity in Wistar rat maximal electroshock-induced seizures model assessed as time spend in hind leg tonic extensor phase at 30 mg/kg, po after 1 hr relative to control; type: functional
Rattus norvegicus [14] = experiment: Anticonvulsant activity in Wistar rat assessed as protection against maximal electroshock-induced seizures at 30 mg/kg, po after 2 hrs; type: functional
Mus musculus [15] = experiment: Neurotoxicity in Swiss albino mouse assessed as motor impairment at 300 mg/kg, ip after 4 hrs by rotorod test; type: toxicity, organism-based; design: dose 300 mg/kg, route intraperitoneal; conditions: in vivo
Mus musculus [16] = experiment: Anticonvulsant activity in ip dosed Swiss albino mouse assessed as protection against subcutaneous pentylenetetrazole-induced seizures after 0.5 hrs; type: functional; conditions: read-out: MED
Mus musculus [17] = experiment: Anticonvulsant activity in ip dosed Swiss albino mouse assessed as protection against maximal electroshock-induced seizures after 0.5 hrs; type: functional; conditions: read-out: MED
[18] = Neurotoxicity in ip dosed Swiss albino mouse assessed as maximum tolerated dose after 4 hrs by rotorod test; type: toxicity, organism-based; conditions: in vivo
[19] = Neurotoxicity in ip dosed Swiss albino mouse assessed as maximum tolerated dose after 0.5 hrs by rotorod test; type: toxicity, organism-based; conditions: in vivo
Mus musculus [20] = experiment: Anticonvulsant activity in Swiss albino mouse assessed as protection against maximal electroshock-induced seizures at 300 mg/kg, ip after 0.5 hrs; type: functional, organism-based; design: dose 300 mg/kg
Mus musculus [21] = experiment: Anticonvulsant activity in Swiss albino mouse assessed as protection against subcutaneous pentylenetetrazole-induced seizures at 300 mg/kg, ip after 0.5 hrs; type: functional, organism-based; design: dose 300 mg/kg
Mus musculus [22] = experiment: Anticonvulsant activity in Swiss albino mouse assessed as protection against maximal electroshock-induced seizures at 300 mg/kg, ip after 4 hrs; type: functional, organism-based; design: dose 300 mg/kg
Mus musculus [23] = experiment: Anticonvulsant activity in Swiss albino mouse assessed as protection against subcutaneous pentylenetetrazole-induced seizures at 300 mg/kg, ip after 4 hrs; type: functional, organism-based; design: dose 300 mg/kg

CN(C)c1ccc(/C=N/NC(=O)Nc2ccc(-n3c(-c4ccccc4)nc4c(Br)cc(Br)cc4c3=O)cc2)cc1
Activity (Rattus norvegicus [1]): 38% | Time (Rattus norvegicus [2]): 12.75 s | minimal effective dose (Mus musculus [3]): 300 mg/kg | Activity (Rattus norvegicus [4]): 0% | Activity (Mus musculus [5]): Non-toxic | minimal effective dose (Mus musculus [6]): 300 mg/kg | Time (Rattus norvegicus [7]): 11.63 s | Activity (Rattus norvegicus [8]): 13% | Activity (Rattus norvegicus [9]): 0% | Activity (Rattus norvegicus [10]): Non-toxic | Time (Rattus norvegicus [11]): 10.75 s | Time (Rattus norvegicus [12]): 11.88 s | Time (Rattus norvegicus [13]): 7.5 s | Activity (Rattus norvegicus [14]): 0% | Activity (Mus musculus [15]): Non-toxic | minimal effective dose (Mus musculus [16]): 100 mg/kg | minimal effective dose (Mus musculus [17]): 100 mg/kg

COc1cc(/C=N/NC(=O)Nc2ccc(-n3c(C)nc4c(Br)cc(Br)cc4c3=O)cc2)ccc1O
Activity (Rattus norvegicus [1]): 25% | Time (Rattus norvegicus [2]): 12.88 s | minimal effective dose (Mus musculus [3]): 100 mg/kg | Activity (Rattus norvegicus [4]): 0% | Activity (Mus musculus [5]): Non-toxic | minimal effective dose (Mus musculus [6]): 300 mg/kg | Time (Rattus norvegicus [7]): 12.38 s | Activity (Rattus norvegicus [8]): 50% | Activity (Rattus norvegicus [9]): 0% | Activity (Rattus norvegicus [10]): Non-toxic | Time (Rattus norvegicus [11]): 5.88 s | Time (Rattus norvegicus [12]): 12.25 s | Time (Rattus norvegicus [13]): 9.5 s | Activity (Rattus norvegicus [14]): 0% | Activity (Mus musculus [15]): Non-toxic | minimal effective dose (Mus musculus [16]): 100 mg/kg | minimal effective dose (Mus musculus [17]): 30 mg/kg

Cc1nc2c(Br)cc(Br)cc2c(=O)n1-c1ccc(NC(=O)N/N=C/c2ccc(N(C)C)cc2)cc1
Activity (Rattus norvegicus [1]): 88% | MTD at 4 h [18]: 300 mg/kg | Time (Rattus norvegicus [2]): 8.38 s | minimal effective dose (Mus musculus [3]): 30 mg/kg | Activity (Rattus norvegicus [4]): 25% | minimal effective dose (Mus musculus [6]): 300 mg/kg | Time (Rattus norvegicus [7]): 0 s | Activity (Rattus norvegicus [8]): 75% | Activity (Rattus norvegicus [9]): 100% | Activity (Rattus norvegicus [10]): Non-toxic | Time (Rattus norvegicus [11]): 2.88 s | Time (Rattus norvegicus [12]): 0 s | MTD at 0.5 h [19]: 300 mg/kg | Time (Rattus norvegicus [13]): 1.38 s | Activity (Rattus norvegicus [14]): 100% | minimal effective dose (Mus musculus [16]): 100 mg/kg | minimal effective dose (Mus musculus [17]): 30 mg/kg

O=C(N/N=C/c1ccccc1)Nc1ccc(-n2c(-c3ccccc3)nc3c(Br)cc(Br)cc3c2=O)cc1
MTD at 4 h [18]: 300 mg/kg | minimal effective dose (Mus musculus [3]): 300 mg/kg | minimal effective dose (Mus musculus [6]): 300 mg/kg | MTD at 0.5 h [19]: 100 mg/kg | minimal effective dose (Mus musculus [16]): 300 mg/kg | minimal effective dose (Mus musculus [17]): 100 mg/kg

O=C(N/N=C/c1ccc(O)cc1)Nc1ccc(-n2c(-c3ccccc3)nc3c(Br)cc(Br)cc3c2=O)cc1
Activity (Rattus norvegicus [1]): 0% | MTD at 4 h [18]: 300 mg/kg | Time (Rattus norvegicus [2]): 12.5 s | minimal effective dose (Mus musculus [3]): 300 mg/kg | Activity (Rattus norvegicus [4]): 0% | Activity (Mus musculus [5]): Non-toxic | minimal effective dose (Mus musculus [6]): 300 mg/kg | Time (Rattus norvegicus [7]): 9 s | Activity (Rattus norvegicus [8]): 0% | Activity (Rattus norvegicus [9]): 50% | Activity (Rattus norvegicus [10]): Non-toxic | Time (Rattus norvegicus [11]): 12.38 s | Time (Rattus norvegicus [12]): 6.5 s | Time (Rattus norvegicus [13]): 12 s | Activity (Rattus norvegicus [14]): 25% | minimal effective dose (Mus musculus [16]): 300 mg/kg | minimal effective dose (Mus musculus [17]): 30 mg/kg

O=C(N/N=C/c1cccc([N+](=O)[O-])c1)Nc1ccc(-n2c(-c3ccccc3)nc3c(Br)cc(Br)cc3c2=O)cc1
Activity (Mus musculus [20]): inactive | minimal effective dose (Mus musculus [6]): 300 mg/kg | Activity (Mus musculus [21]): inactive | Activity (Mus musculus [22]): inactive

COc1cc(/C=N/NC(=O)Nc2ccc(-n3c(-c4ccccc4)nc4c(Br)cc(Br)cc4c3=O)cc2)ccc1O
MTD at 4 h [18]: 300 mg/kg | Activity (Mus musculus [23]): inactive | minimal effective dose (Mus musculus [3]): 300 mg/kg | MTD at 0.5 h [19]: 100 mg/kg | minimal effective dose (Mus musculus [16]): 300 mg/kg | minimal effective dose (Mus musculus [17]): 100 mg/kg

Cc1nc2c(Br)cc(Br)cc2c(=O)n1-c1ccc(NC(=O)N/N=C/c2ccc(O)cc2)cc1
Activity (Rattus norvegicus [1]): 88% | Time (Rattus norvegicus [2]): 6.63 s | minimal effective dose (Mus musculus [3]): 30 mg/kg | Activity (Rattus norvegicus [4]): 25% | Activity (Mus musculus [5]): Non-toxic | minimal effective dose (Mus musculus [6]): 300 mg/kg | Time (Rattus norvegicus [7]): 0 s | Activity (Rattus norvegicus [8]): 75% | Activity (Rattus norvegicus [9]): 100% | Activity (Rattus norvegicus [10]): Non-toxic | Time (Rattus norvegicus [11]): 2.38 s | Time (Rattus norvegicus [12]): 0 s | Time (Rattus norvegicus [13]): 1.25 s | Activity (Rattus norvegicus [14]): 100% | Activity (Mus musculus [15]): Non-toxic | minimal effective dose (Mus musculus [16]): 100 mg/kg | minimal effective dose (Mus musculus [17]): 30 mg/kg

O=C(N/N=C/c1ccc([N+](=O)[O-])cc1)Nc1ccc(-n2c(-c3ccccc3)nc3c(Br)cc(Br)cc3c2=O)cc1
Activity (Mus musculus [20]): inactive | Activity (Mus musculus [23]): inactive | Activity (Mus musculus [22]): inactive | minimal effective dose (Mus musculus [16]): 300 mg/kg

O=C1NC(=O)C(c2ccccc2)(c2ccccc2)N1 [PHENYTOIN]
Activity (Rattus norvegicus [1]): 75% | Activity (Mus musculus [23]): inactive | Time (Rattus norvegicus [2]): 7.13 s | minimal effective dose (Mus musculus [3]): 30 mg/kg | Activity (Rattus norvegicus [4]): 25% | Time (Rattus norvegicus [7]): 1.88 s | Activity (Rattus norvegicus [8]): 100% | Activity (Rattus norvegicus [9]): 75% | Activity (Rattus norvegicus [10]): Non-toxic | Activity (Mus musculus [21]): inactive | Time (Rattus norvegicus [11]): 0 s | Time (Rattus norvegicus [12]): 1.38 s | Time (Rattus norvegicus [13]): 2.63 s | Activity (Rattus norvegicus [14]): 75% | minimal effective dose (Mus musculus [17]): 30 mg/kg

Cc1nc2c(Br)cc(Br)cc2c(=O)n1-c1ccc(NC(=O)N/N=C/c2ccc([N+](=O)[O-])cc2)cc1
MTD at 4 h [18]: 300 mg/kg | Activity (Mus musculus [5]): Non-toxic | minimal effective dose (Mus musculus [6]): 300 mg/kg | Activity (Mus musculus [21]): inactive | Activity (Mus musculus [22]): inactive | minimal effective dose (Mus musculus [17]): 100 mg/kg

CCC1(C)CC(=O)NC1=O (configuration not stated) [ETHOSUXIMIDE]
Activity (Mus musculus [20]): inactive | Activity (Mus musculus [5]): Non-toxic | minimal effective dose (Mus musculus [6]): 300 mg/kg | Activity (Mus musculus [22]): inactive | Activity (Mus musculus [15]): Non-toxic | minimal effective dose (Mus musculus [16]): 100 mg/kg

Cc1nc2c(Br)cc(Br)cc2c(=O)n1-c1ccc(NC(=O)N/N=C/c2cccc([N+](=O)[O-])c2)cc1
Activity (Mus musculus [23]): inactive | minimal effective dose (Mus musculus [3]): 300 mg/kg | MTD at 0.5 h [19]: 300 mg/kg | Activity (Mus musculus [15]): Non-toxic | minimal effective dose (Mus musculus [16]): 300 mg/kg | minimal effective dose (Mus musculus [17]): 100 mg/kg

O=C(N/N=C/c1ccc(Cl)cc1)Nc1ccc(-n2c(-c3ccccc3)nc3c(Br)cc(Br)cc3c2=O)cc1
Activity (Mus musculus [20]): inactive | Activity (Mus musculus [23]): inactive | Activity (Mus musculus [21]): inactive | Activity (Mus musculus [22]): inactive

Cc1nc2c(Br)cc(Br)cc2c(=O)n1-c1ccc(NC(=O)N/N=C/c2ccccc2)cc1
Activity (Mus musculus [23]): inactive | minimal effective dose (Mus musculus [3]): 300 mg/kg | Activity (Mus musculus [5]): Non-toxic | Activity (Mus musculus [15]): Non-toxic | minimal effective dose (Mus musculus [16]): 300 mg/kg | minimal effective dose (Mus musculus [17]): 100 mg/kg

Cc1nc2c(Br)cc(Br)cc2c(=O)n1-c1ccc(NC(=O)N/N=C/c2ccc(Cl)cc2)cc1
Activity (Mus musculus [23]): inactive | Activity (Mus musculus [21]): inactive | Activity (Mus musculus [22]): inactive | minimal effective dose (Mus musculus [17]): 300 mg/kg

Source: ChEMBL document CHEMBL2016453, “Design, synthesis and anticonvulsant activities of novel 1-(substituted/unsubstituted benzylidene)-4-(4-(6,8-dibromo-2-(methyl/phenyl)-4-oxoquinazolin-3(4H)-yl)phenyl) semicarbazide derivatives” (Bioorg Med Chem Lett, 2012)
